Series [1] addresses T1, KRAS WT (Homo sapiens, UniProt P01116+P62937). The series can be described thus: RAS-RAF Disruption, KRAS WT. Format: biochemical.
For a further series, the target named is NRAS WT (Homo sapiens, UniProt P01111+P62937). Nature of the series: RAS-RAF Disruption, NRAS WT. In kind it is biochemical.
Series [2] has as its target T1, KRAS WT. The series can be described thus: KRAS Binding of CypA:TCI (KD2), KRAS WT.
For series [3], the system named is KRAS MUT (G12C, G12D, G12V). The series can be described thus: RAS-RAF Disruption, KRAS MUT. Format: biochemical.
The test system of series [4] is KRAS MUT (G12C, G12D, G12V). The series can be described thus: 2D Cell Viability, 120 hr, KRAS MUT. Format: cell-based.
The subject of series [5] is NRAS MUT (Q61H, Q61K, Q61L, Q61R). The series can be described thus: RAS-RAF Disruption, NRAS MUT. Format: biochemical.
In series [6] the test system is RAS WT. Nature of the series: Cellular pERK (2D, 4 hr), RAS WT. Format: cell-based.
In series [7] the test system is human DUSP6 in NCI-H441 xenograft tumor. Nature of the series: NCI-H441 xenograft single dose PKPD (exposure, human DUSP6). Format: in vivo, mouse. As to conditions: single oral dose, NCI-H441 xenograft tumor (FIG. 2). As to the method:
(§1) All mouse studies and procedures related to animal handling, care and treatment complied with all applicable regulations and guidelines of Institutional Animal Care and Use Committee (IACUC) approvals. Female BALB/c nude mice, 6-8 weeks old were used. Animal vendor was Shanghai Sino-British Sippr/BK Laboratory Animal Co., LTD. NCI-H441 tumor cells (ATCC-HTB-174) was maintained in vitro in RPMI-1640 medium supplemented with 10% heat inactivated FBS, 100 μg/mL streptomycin. Each mouse was inoculated subcutaneously at the right flank with 2×10^6 tumor cells in 0.2 ml media/matrigel for tumor development. Efficacy treatment started when the average tumor size reached 150-200 mm^3 in size, and the single dosed PKPD treatment started when tumor size reached 300-600 mm^3. Mice in the study were weighted and tumors were measured twice weekly.
On the technique in general: Xenograft models place foreign cells or tissue in a host animal.

For series [8], the system named is NCI-H441 KRAS^G12V NSCLC xenograft model. The series can be described thus: NCI-H441 xenograft efficacy and tolerability. In kind it is in vivo. As to the method: as §1
NCI-H441 is a human lung tumor derived cell line. It harbors a KRAS^G12V mutation. It is typically grown in immune-deficient mice as a xenograft model. An NCI-H441 xenograft study was conducted in female BALB/C Nude mice. Each mouse was inoculated subcutaneously on the right flank with the single cell suspension of tumor cells (2×10^6) in 200 uL with BD Matrigel (1:1 ratio) for tumor development. Tumor width and length were measured with digital calipers, and the tumor volume in mm3 was calculated using the formula: Volume=((width)2×length)/2, where width and length are measured in mm.
Tumor growth inhibition (TGI, %) was calculated as percentage change in tumor volume for each group 100×(Vdayxc−Vdayx)/(Vdayxc−Vdayoc), where Vday0c is the starting mean tumor volume for the vehicle group, and Vdayx and Vdayxc are the corresponding tumor volumes for treatment group and control group on day x, calculated for the duration of the study. Mean tumor regression (where applicable, Vdayx<Vday0x) was calculated using the formula 100×(Vday0x−Vdayx)/Vday0x.
Differences in treatment arms as compared to vehicle controls were assessed by an ordinary one-way ANOVA of tumor volumes along with multiple comparisons via a post-hoc Tukey's test in GraphPad Prism software. Note, in some studies, additional test articles/groups (not reported here) were included and statistical analyses (ANOVA, post-hoc within group comparisons) were conducted on all treatment groups to allow for any interactions. The statistical significance values reported here represent the output of such analyses for RMC-6236 treatment arm.

The subject of series [9] is RAS WT. Nature of the series: 3D Cell Viability, 120 hr, RAS WT. Format: cell-based.
Series [10] is described as follows: Oral bioavailability (multiple species). The settings on record: in vivo, read-out: Oral % F (multiple species).
The test system of another series is BRAF (V600E). The series can be described thus: 2D Cell Viability, 120 hr, BRAF (V600E). In kind it is cell-based.
The next series addresses CypA (Homo sapiens, UniProt P62937). The series can be described thus: CypA Binding (KD1). The text has this: The KD1 value of a RAS(ON) multi-selective inhibitor can be determined using methods standard in the art, including but not limited to surface plasmon resonance (SPR), Fluorescence Polarization (FP), or isothermal titration calorimetry (ITC). In a non-limiting example, the binding affinity of compounds for CypA can be assessed by SPR using, for example, a Biacore 8K instrument. CypA is immobilized on a sensor chip (e.g., a streptavidin chip), and varying RAS(ON) multi-selective inhibitor compound concentrations can be flowed over the chip in assay buffer. […] In a specific embodiment, the KD1 of a RAS(ON) multi-selective inhibitor is determined using SPR.
The binding affinity of RAS(ON) multi-selective inhibitor compounds for CypA can also be assessed by FP competition with fluorescein tagged cyclosporine A by varying RAS(ON) multi-selective inhibitor compound concentrations. The signals can be fitted using a concentration response curve and the KD1 is calculated.
In some embodiments, the KD1 value of a RAS(ON) multi-selective inhibitor for CypA can be determined using ITC, a label-free biophysical technique that directly measures the heat released or absorbed during molecular interactions. […] As the inhibitor binds to CypA, the heat of binding is measured after each injection. […]

Series [11] relates to KRAS MUT (G12C, G12D, G12V). The series can be described thus: Cellular pERK (2D, 4 hr), KRAS MUT. In kind it is cell-based.
In the next series the test system is RAS mutant NSCLC or PDAC. Nature of the series: Phase I study of RMC-6236 (NCT05379985). Format: in vivo, human.
Series [12] in a line: Tolerability by dosing schedule in preclinical models.
Series [13] relates to Capan-2, KRAS^G12V PDAC CDX model. The series can be described thus: Capan-2 xenograft efficacy and tolerability. In kind it is in vivo, mouse. On the procedure:
Capan-2 is a human pancreatic adenocarcinoma derived cell line. It harbors a KRAS^G12V mutation. It is typically grown in immune-deficient mice as a xenograft model. A Capan-2 xenograft study was conducted in female BALB/C Nude mice. Each mouse was inoculated subcutaneously on the right flank with the single cell suspension of tumor cells (4×10^6) in 100 uL RPMI 1640/Matrigel mixture (1:1 ratio) for tumor development. Tumor width and length were measured with digital calipers, and the tumor volume in mm3 was calculated using the formula: Volume=((width)2×length)/2, where width and length are measured in mm. Tumor growth inhibition (TGI, %) was calculated as percentage change in tumor volume for each group 100×(Vdayxc−Vdayx)/(Vdayxc−Vday0c), where Vday0c is the starting mean tumor volume for the vehicle group, and Vdayx and Vdayxc are the corresponding tumor volumes for treatment group and control group on day x, calculated for the duration of the study. Mean tumor regression (where applicable, Vdayx<Vday0x) was calculated using the formula 100×(Vday0x−Vdayx)/Vday0x.

Series [14] in a line: Half-life after oral administration to patients. As to conditions: human, in vivo.
Another series deals with KRAS MUT (G12D, G12V). Nature of the series: KRAS Binding of CypA:TCI (KD2), KRAS MUT.
The mark [15] stands for this setting: 25 mg/kg daily, 50 mg/kg daily, 50 mg/kg Q2D and 100 mg/kg Q2D (FIG. 3).
Setting [16] is: patients with RAS mutant NSCLC or PDAC.

T1 sequence (P01116 1-188 isoform P01116-2): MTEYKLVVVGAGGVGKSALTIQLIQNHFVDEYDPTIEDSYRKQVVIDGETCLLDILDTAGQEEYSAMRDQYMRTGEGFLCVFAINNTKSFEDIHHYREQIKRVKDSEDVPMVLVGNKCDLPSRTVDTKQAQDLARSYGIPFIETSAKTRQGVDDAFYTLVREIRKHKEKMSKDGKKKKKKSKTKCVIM
T1 sequence (P62937 whole entry): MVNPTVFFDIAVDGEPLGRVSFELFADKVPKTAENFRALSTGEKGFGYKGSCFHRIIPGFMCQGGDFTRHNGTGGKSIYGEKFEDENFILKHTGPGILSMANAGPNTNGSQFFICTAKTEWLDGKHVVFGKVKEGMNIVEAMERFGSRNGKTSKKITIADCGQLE
Sequence of CypA (P62937 whole entry): as above
Sequence of NRAS WT (P01111 whole entry): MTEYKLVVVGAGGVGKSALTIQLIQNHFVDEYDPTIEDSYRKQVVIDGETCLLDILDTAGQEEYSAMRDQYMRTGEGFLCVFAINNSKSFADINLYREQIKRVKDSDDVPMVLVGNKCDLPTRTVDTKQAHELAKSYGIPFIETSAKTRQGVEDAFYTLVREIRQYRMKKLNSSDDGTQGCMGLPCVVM
Sequence of NRAS WT (P62937 whole entry): as the sequence (P62937 whole entry) above

The IC50 is the concentration at which inhibition is half-maximal. A word on the Kd: it is the equilibrium constant for the complex coming apart. Read a low Kd as a tighter complex. As for `CCn1c(-c2cc(N3CCN(C)CC3)cnc2[C@H](C)OC)c2c3cc(ccc31)-c1csc(n1)C[C@H](NC(=O)[C@H](C(C)C)N(C)C(=O)N(C)C)C(=O)N1CCC[C@H](N1)C(=O)OCC(C)(C)C2` (atropisomer, axis not shown) [Compound A], the IC50 at KRAS WT [1] was 0.042 µM; on NRAS WT, 0.033 µM; in series [3], 0.023 to 0.165 µM; in series [4], 0.0002 to 0.0012 µM; in series [5], 0.018 to 0.109 µM; in the series on RAS WT [6] it was 0.0004 µM. Besides, the IC50 is 0.0004 µM with RAS WT [9], 1.88 µM in the series with BRAF (V600E) and 0.0003 to 0.001 µM in series [11]. Besides, the values for the Kd at KRAS WT [2] and on CypA were 0.081 µM and 0.012 µM, respectively. In series [7], the “time of maximum DUSP6 suppression post single dose” value (“time” for short) was determined as 24 h. Moreover, in series [8] (setting [15]), the “tolerability (dosing holidays)” value is given as “all treatment groups require some dosing holidays towards the end”. Also, the tumor regression result in series [8] (setting [15]) is recorded as “the same tumor regression”. For the same compound, the bioavailability in series [10] lay in the range of 20 to 38%.
In general, half-life refers to how long it takes for the measured level to halve. Low values mean fast loss, high ones slow loss. For `CCn1c(-c2cc(N3CCN(C)CC3)cnc2[C@H](C)OC)c2c3cc(ccc31)-c1csc(n1)C[C@H](NC(=O)[C@H]1C[C@@H]1C)C(=O)N1CCC[C@H](N1)C(=O)OCC(C)(C)C2` (atropisomer, axis not shown) [RMC-6236, daraxonrasib], the half-inhibitory concentration (IC50) in series [3] was 0.035 to 0.229 µM; in series [4], 0.001 to 0.0031 µM; in [5], 0.057 to 0.204 µM; with RAS WT [6], 0.0015 µM; with RAS WT [9], 0.0014 µM; in the series on BRAF (V600E) it was 7.21 µM. Moreover, the IC50 in series [11] lay within 0.0004 to 0.0036 µM. In addition, the “most common treatment-related adverse events (TRAEs)” value in the series with RAS mutant NSCLC or PDAC was “rash and GI-related toxicities”. Further, the antitumor activity result in the series with RAS mutant NSCLC or PDAC (setting [16]) is reported as “encouraging antitumor activity”. The safety profile result in the series on RAS mutant NSCLC or PDAC (setting [16]) was “acceptable safety profile”. In [7], the “time” value was found to be 8 h. In addition, in [12] (BID dosing), the “body weight loss and tolerability” value is “more severe body weight loss and intolerability”. Further, the tolerated dose level result in [12] (Q2D dosing) is recorded as “allows higher dose levels to be tolerated”. Also, the body weight loss result in series [12] (Q2D dosing at an equivalent dose of QD dosing) is reported as “slightly improves the body weight loss”. Moreover, the “decrease in tumor volume” value in [8] (25 mg/kg (Q2D) (FIG. 1)) is “lower decreases in tumor volume”. Also, the tumor regression in series [8] (25 mg/kg QD, NCI-H441 model (FIG. 6)) stood at 88%; in series [8] (100 mg/kg Q2D, NCI-H441 model (FIG. 6)) it was 89%; in [8] (100 mpk with increased interval of dosing, NCI-H441 model (FIG. 6)), 68%; in [13] (25 mg/kg QD, Capan-2 (FIG. 7)), 53%; in [13] (35 mg/kg 5on2off, Capan-2 (FIG. 7)) it was 28%; in series [13] (40 mg/kg 4on3off, Capan-2 (FIG. 7)), 27%. The compound further came in with a tumor regression in series [13] (50 mg/kg Q2D, Capan-2 (FIG. 7)) of 51%. For the same compound, the “tolerability, body weight” value is reported as “without any significant body weight loss” in [8] (all doses and regimens of FIG. 6); “without any significant body weight loss” in series [13] (all tested doses and regimens, Capan-2 (FIG. 7)). In addition, the tolerability entry in series [8] (all regimens of FIG. 4 and FIG. 5) is on record as “tolerated in vivo”. The tumor growth inhibition entry in series [13] (all tested doses and regimens, oral administration (FIG. 7)) is “Tumor growth inhibition was observed”. For the same compound, in series [14], the half-life was around 10 h. Moreover, the bioavailability in [10] fell in the range of 24 to 33%. The Kd on KRAS MUT (G12D, G12V) lay in the range of 0.131 to 0.364 µM.
With `CCn1c(-c2cc(N3CCN(C4CC4)CC3)cnc2[C@H](C)OC)c2c3cc(ccc31)-c1csc(n1)C[C@H](CC(=O)[C@H]1[C@@H]3COC[C@@H]31)C(=O)N1CCC[C@H](N1)C(=O)OCC(C)(C)C2` (atropisomer, axis not shown) [RMC-7977], the IC50 against KRAS WT [1] is 0.076 µM; at NRAS WT, 0.057 µM; in series [3] it was 0.031 to 0.175 µM; in [4] it was 0.0008 to 0.0049 µM; in [5], 0.048 to 0.144 µM; in the series with RAS WT [6] it was 0.0017 µM. The IC50 with RAS WT [9] is 0.0019 µM; in the series with BRAF (V600E), 8.37 µM; in series [11] it was 0.0005 to 0.0041 µM. For the same compound, the equilibrium dissociation constant (Kd) at KRAS WT [2] was 0.116 µM; at KRAS MUT (G12D, G12V), 0.111 to 0.435 µM; on CypA, 0.216 µM. Besides, in series [7], the “time” value turned out to be 8 h. The bioavailability in series [10] worked out at 60%.

For the origin of these results see patent US20250375445A1, “METHODS OF TREATING A RAS PROTEIN-RELATED DISEASE OR DISORDER” (Revolution Medicines, Inc., priority 2024, published 2025).
